Ten compounds from ChEMBL document CHEMBL1201862, “PubChem BioAssay data set” (2004) can be followed below.

Test systems include A498; A549; COLO 205; HOP-92; KM12; MDA-MB-231; MOLT-4; NCI-H226; OVCAR-3; OVCAR-4; PC-3; RPMI-8226; SF-268; SF-295; SF-539; SK-MEL-5; SK-OV-3; SW-620; T47D.
Holding throughout (test): NCI tumour cell line growth inhibition, 48 h

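Each compound was tested at five concentrations against cells in 96-well plates for 48 hours. GI50 = concentration required for 50% inhibition of growth.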 The source made the active and inactive calls. No stated cut-off is given here; in the data, active = GI50 up to about 1.1 µM and inactive = higher. Some results are limits rather than exact numbers.

Consider `Nc1nc2c(ncn2C2CCC(CO)O2)c(=O)n1C(=O)c1ccccc1` (stereo not given), for which the GI50 in the test with A498, in the test on A549, in the test on COLO 205, in the test with HOP-92, in the test with KM12 and in the test with MDA-MB-231 was > 100 µM (inactive) throughout. Besides, the GI50 in the test on MOLT-4, in the test on NCI-H226, with OVCAR-3, in the test with OVCAR-4, in the test with PC-3 and in the test with RPMI-8226 was > 100 µM (inactive) in each case. In addition, the GI50 in the test with SF-268, in the test on SF-295, with SF-539, in the test with SK-MEL-5, with SK-OV-3 and in the test with SW-620 was > 100 µM (inactive) each time. Also, the GI50 in the test on T47D was > 100 µM (inactive).

With `COC(C(=O)C(O)C(C)O)C1CC2C=C3C=C(OC4CC(OC5CC(O)C(OC)C(C)O5)C(OC(C)=O)C(C)O4)C(C)C(O)=C3C(O)=C2C(=O)C1OC1CC(OC2CC(OC3CC(C)(O)C(OC(=O)C(C)C)C(C)O3)C(O)C(C)O2)C(O)C(C)O1` (stereo not given), the GI50 with A498, in the test with A549, in the test with COLO 205, in the test on HOP-92, in the test with KM12 and in the test on MDA-MB-231 was < 0.01 µM (active) in each case. For the same compound, the GI50 in the test with MOLT-4, in the test with NCI-H226, in the test with OVCAR-3, in the test on OVCAR-4, in the test on PC-3 and with RPMI-8226 was < 0.01 µM (active) throughout. Moreover, the GI50 in the test with SF-268, with SF-295, in the test on SF-539, in the test on SK-MEL-5, in the test on SK-OV-3 and in the test on SW-620 was < 0.01 µM (active) throughout. The GI50 in the test on T47D was < 0.01 µM (active).

In the case of `C=C1C(=O)OC2/C=C(/CO)C3(O)CC(O)C(C)(CC(OC(=O)/C(C)=C/C)C12)O3` (stereo not given), the GI50 in the test with A498 was 20.9 µM (inactive); in the test with A549 it was 32.8 µM (inactive); with COLO 205, 4.73 µM (inactive); in the test on HOP-92 it was 9.91 µM (inactive); in the test with KM12, 20.5 µM (inactive); in the test on MDA-MB-231 it was 15.3 µM (inactive). The GI50 with MOLT-4 is 2.47 µM (inactive); in the test with NCI-H226, 18.5 µM (inactive); in the test on OVCAR-3, 10.2 µM (inactive); in the test with OVCAR-4, 22.3 µM (inactive); in the test on PC-3 it was 26.3 µM (inactive); with RPMI-8226 it was 2.51 µM (inactive). Further, the GI50 with SF-268 was 11 µM (inactive); in the test with SF-295, 36.3 µM (inactive); in the test with SF-539, 23.9 µM (inactive); with SK-MEL-5 it was 11.1 µM (inactive); with SK-OV-3, 21.4 µM (inactive); in the test with SW-620, 3.33 µM (inactive). The GI50 in the test with T47D was 10.9 µM (inactive).

`Cc1nc(-c2ccccc2)c(-c2ccccc2)s1`: the GI50 with A498 was 17.6 µM (inactive); with A549 it was 25.8 µM (inactive); with COLO 205, 18.3 µM (inactive); in the test with HOP-92, 20.6 µM (inactive); in the test on KM12, 20.4 µM (inactive); with MDA-MB-231, 22.5 µM (inactive). Besides, the GI50 is 17.6 µM (inactive) in the test on MOLT-4; 17.9 µM (inactive) with NCI-H226; 23.5 µM (inactive) in the test on OVCAR-3; 19.6 µM (inactive) in the test with OVCAR-4; 14.2 µM (inactive) in the test on PC-3; 14.3 µM (inactive) in the test on RPMI-8226. In addition, the GI50 in the test on SF-268 is 25.6 µM (inactive); in the test with SF-295 it was 24.8 µM (inactive); in the test on SF-539, 22.6 µM (inactive); in the test on SK-MEL-5, 14.4 µM (inactive); in the test with SK-OV-3, 22.9 µM (inactive); in the test on SW-620, 15.7 µM (inactive). Also, in the test on T47D, the GI50 was 37.8 µM (inactive).

On to `CCN(CC(=O)O)CC(=O)O`, for which the GI50 in the test with A498, in the test with A549, in the test with COLO 205, with HOP-92, in the test on KM12 and with MDA-MB-231 was > 100 µM (inactive) in each case. Also, the GI50 in the test with MOLT-4, in the test on NCI-H226, in the test with OVCAR-3, with OVCAR-4, with PC-3 and with RPMI-8226 was > 100 µM (inactive) each time. The GI50 in the test with SF-268, with SF-295, with SF-539, in the test with SK-MEL-5, in the test with SK-OV-3 and with SW-620 was > 100 µM (inactive) each time. For the same compound, the GI50 in the test on T47D is > 100 µM (inactive).

In the case of `CC1C(=O)OC2CC[N+]3([O-])CC=C(COC(=O)C(C)(O)C1(C)O)C23` (stereo not given), the GI50 in the test with A498, in the test on A549, in the test with COLO 205, with HOP-92, with KM12 and in the test on MDA-MB-231 was > 100 µM (inactive) each time. Further, the GI50 in the test on MOLT-4, in the test on NCI-H226, in the test with OVCAR-3, in the test on OVCAR-4, in the test with PC-3 and in the test on RPMI-8226 was > 100 µM (inactive) each time. For the same compound, the GI50 in the test on SF-268, with SF-295, in the test with SF-539, in the test with SK-MEL-5, in the test on SK-OV-3 and in the test on SW-620 was > 100 µM (inactive) each time. Moreover, the GI50 in the test on T47D is > 100 µM (inactive).

With `CC1(C)[C@@H]2CC[C@@]1(C)[C@@H]1O[C@@H](O[C@@H](CN)c3cc(Cl)c(OCc4ccccc4)c(OCc4ccccc4)c3)C[C@H]21`, the GI50 in the test on A498 was 0.199 µM (active); in the test with A549, 0.163 µM (active); with COLO 205, 0.11 µM (active); in the test with HOP-92, 0.171 µM (active); with KM12 it was 0.169 µM (active); in the test with MDA-MB-231, 0.155 µM (active). Moreover, the GI50 with MOLT-4 was 0.16 µM (active); in the test on NCI-H226, 0.184 µM (active); in the test with OVCAR-3, 0.168 µM (active); with OVCAR-4, 0.162 µM (active); in the test on PC-3 it was 0.158 µM (active); in the test on RPMI-8226, 0.0463 µM (active). In addition, the GI50 in the test with SF-268 is 0.192 µM (active); with SF-295, 0.183 µM (active); with SF-539, 0.196 µM (active); in the test on SK-MEL-5, 0.178 µM (active); in the test on SK-OV-3, 0.175 µM (active); in the test with SW-620, 0.191 µM (active). Moreover, in the test on T47D, the GI50 was 0.178 µM (active).

Turning to `CCOC(=O)C1OC(C2(C)OC3(OC4(C=CC3O)OC(C(C)C(=O)C(C)C(O)C(C)CC(C)c3c(Cl)cc(C)c(O)c3C(=O)O)C(C)CC4C)C(C)C2OC)CC1O` (stereo not given), the GI50 with A498 was 0.46 µM (active); in the test with A549, 0.406 µM (active); in the test on COLO 205 it was 0.818 µM (active); in the test on HOP-92 it was 2.13 µM (inactive); with KM12 it was 1.28 µM (inactive); in the test on MDA-MB-231, 1.15 µM (inactive). Besides, the GI50 in the test on MOLT-4 was 0.117 µM (active); in the test with NCI-H226, 0.24 µM (active); in the test with OVCAR-3, 0.45 µM (active); in the test on OVCAR-4, 0.544 µM (active); in the test on PC-3, 1.6 µM (inactive); in the test on RPMI-8226, 0.54 µM (active). Besides, the GI50 in the test with SF-268 was 0.155 µM (active); in the test with SF-295, 0.257 µM (active); in the test with SF-539, 0.65 µM (active); with SK-MEL-5 it was 0.257 µM (active); in the test on SK-OV-3, 0.177 µM (active); in the test with SW-620, 0.251 µM (active). Further, the GI50 in the test with T47D was 0.955 µM (active).

As for `CN1CCN(C(=O)c2cn(Cc3cncn3Cc3ccc4c(c3)OCO4)cc2-c2cccc3ccccc23)CC1`, the GI50 in the test with A498 is 0.883 µM (active); with A549 it was 16.9 µM (inactive); with COLO 205 it was 14.7 µM (inactive); with HOP-92, 1.03 µM (active); with KM12, 0.782 µM (active); in the test on MDA-MB-231 it was 9.25 µM (inactive). The GI50 is 1.58 µM (inactive) in the test on MOLT-4; 58.1 µM (inactive) in the test with NCI-H226; 25.5 µM (inactive) with OVCAR-3; 22.3 µM (inactive) in the test on OVCAR-4; 15.6 µM (inactive) with PC-3; 7.05 µM (inactive) in the test on RPMI-8226. Also, the GI50 in the test on SF-268 is 18.5 µM (inactive); in the test on SF-295, 6.24 µM (inactive); in the test on SF-539, 21.1 µM (inactive); in the test on SK-MEL-5, 9.04 µM (inactive); with SK-OV-3 it was 22.7 µM (inactive); in the test on SW-620, 13.9 µM (inactive). Moreover, in the test with T47D, the GI50 is 15.7 µM (inactive).

On to `O=C(c1ccc(Cl)cc1)N(Cc1cccnc1)C(=S)N(Cc1cccnc1)C(=O)c1ccc(Cl)cc1`, for which the GI50 in the test on A498 was 30.5 µM (inactive); in the test with A549 it was 99.5 µM (inactive); with COLO 205 it was 20.5 µM (inactive); in the test with HOP-92, 34 µM (inactive); with KM12, 35.4 µM (inactive); in the test on MDA-MB-231, 26.5 µM (inactive). For the same compound, the GI50 with MOLT-4 was 16.1 µM (inactive); with NCI-H226, 43.5 µM (inactive); in the test with OVCAR-3, 34 µM (inactive); in the test with OVCAR-4, 23.6 µM (inactive); with PC-3, 30.3 µM (inactive); in the test with RPMI-8226 it was 13.2 µM (inactive). Moreover, the GI50 is 28.3 µM (inactive) in the test with SF-268; 43.3 µM (inactive) in the test on SF-295; 23 µM (inactive) in the test on SF-539; 27.5 µM (inactive) with SK-MEL-5; > 100 µM (inactive) in the test on SK-OV-3; 40.5 µM (inactive) in the test on SW-620. Moreover, the GI50 in the test with T47D is 57.4 µM (inactive).
